The results in this text go back to ChEMBL document CHEMBL1144965, “A series of 2(Z)-2-benzylidene-6,7-dihydroxybenzofuran-3[2H]-ones as inhibitors of chorismate synthase” (Bioorg Med Chem Lett, 2003).

To fix the notation:
B1: 3-phosphoshikimate 1-carboxyvinyltransferase (Escherichia coli K-12), P0A6D3 (protein)
chain: MESLTLQPIARVDGTINLPGSKSVSNRALLLAALAHGKTVLTNLLDSDDVRHMLNALTALGVSYTLSADRTRCEIIGNGGPLHAEGALELFLGNAGTAMRPLAAALCLGSNDIVLTGEPRMKERPIGHLVDALRLGGAKITYLEQENYPPLRLQGGFTGGNVDVDGSVSSQFLTALLMTAPLAPEDTVIRIKGDLVSKPYIDITLNLMKTFGVEIENQHYQQFVVKGGQSYQSPGTYLVEGDASSASYFLAAAAIKGGTVKVTGIGRNSMQGDIRFADVLEKMGATICWGDDYISCTRGELNAIDMDMNHIPDAAMTIATAALFAKGTTTLRNIYNWRVKETDRLFAMATELRKVGAEVEEGHDYIRITPPEKLNFAEIATYNDHRMAMCFSLVALSDTPVTILDPKCTAKTFPDYFEQLARISQAA

System in the first data set: not listed separately
Briefly: (§1) Non-competitive inhibitory activity with respect to cofactor FMN.
What is called Ki is the equilibrium dissociation constant of an inhibitor or competing ligand from its target. A low value points to tighter binding. With `COc1ccc(/C=C2/Oc3c(ccc(O)c3O)C2=O)c(O)c1`, the affinity, expressed as Ki, was 1400 nM.

Biological target in another data set: not listed separately
The description is as §1.
On to `CCN(CC)c1ccc(/C=C2/Oc3c(ccc(O)c3O)C2=O)cc1`, for which the Ki was determined as 1700 nM.

The next data set has as its target Chorismate synthase (Streptococcus pneumoniae). Description: Competitive inhibitory activity with respect to EPSP (5-enolpyruvyl-shikimate- 3-phosphate) at chorismate synthase.
Molecule `COc1ccc(/C=C2/Oc3c(ccc(O)c3O)C2=O)c(O)c1` gave a Ki of 100 nM.

Substrate in a further data set: CCN(CC)c1ccc(/C=C2/Oc3c(ccc(O)c3O)C2=O)cc1
Assay: not given; call rule not given here
The term Km denotes the substrate concentration at which the rate is half of its maximum. Regarding B1, the Km was 30 µM.

For another data set, the target named is T1, Chorismate synthase (Streptococcus pneumoniae serotype 4 (strain ATCC BAA-334 / TIGR4), UniProt P0A2Y6).
T1 sequence (P0A2Y6 whole entry): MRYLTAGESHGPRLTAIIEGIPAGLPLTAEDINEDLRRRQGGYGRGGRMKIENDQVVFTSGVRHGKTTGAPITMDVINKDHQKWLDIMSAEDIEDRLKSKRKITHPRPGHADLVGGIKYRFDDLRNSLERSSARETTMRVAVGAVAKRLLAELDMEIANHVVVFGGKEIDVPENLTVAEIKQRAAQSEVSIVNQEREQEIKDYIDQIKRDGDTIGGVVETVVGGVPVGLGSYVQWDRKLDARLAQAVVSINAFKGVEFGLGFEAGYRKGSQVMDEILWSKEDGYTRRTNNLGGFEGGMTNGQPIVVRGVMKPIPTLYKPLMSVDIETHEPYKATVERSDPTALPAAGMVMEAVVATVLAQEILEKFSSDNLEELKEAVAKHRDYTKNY
Briefly: Inhibitory concentration against Streptococcus pneumoniae chorismate synthase; Not active.
For orientation: IC50 means the concentration that gives 50% inhibition. Low values mean higher potency, high ones lower potency. Consider `N#Cc1ccc(/C=C2/Oc3c(ccc(O)c3O)C2=O)cc1`, for which the IC50 result is recorded as “Not Active”.
On the same count and under the same terms, then `Cc1ccc(/C=C2/Oc3c(ccc(O)c3O)C2=O)cc1`, with “Not Active”.

The target in a further data set is T1, Chorismate synthase. Briefly: Inhibitory concentration against Streptococcus pneumoniae chorismate synthase.
Turning to `O=C(O)COc1ccc(/C=C2/Oc3c(ccc(O)c3O)C2=O)c(O)c1`, the IC50 came to 2600 nM.
Still for that read-out and setting: then `O=C1/C(=C\c2ccc(OCc3ccccc3)cc2O)Oc2c1ccc(O)c2O`, with 1000 nM; and `CCCCCOc1ccc(/C=C2/Oc3c(ccc(O)c3O)C2=O)c(O)c1`, with 220 nM; and `O=C(O)c1ccccc1/C=C1/Oc2c(ccc(O)c2O)C1=O`, with 10700 nM.
The same measure, in the same setting: to `CCCCOc1ccc(/C=C2/Oc3c(ccc(O)c3O)C2=O)cc1` belongs 1500 nM; to `O=C(O)CCCOc1ccc(/C=C2/Oc3c(ccc(O)c3O)C2=O)c(O)c1`, 1100 nM.
Molecule `CCCCOc1ccc(/C=C2/Oc3c(ccc(O)c3O)C2=O)c(O)c1` came in with a half-inhibitory concentration (IC50) of 450 nM.
Turning to `O=C1/C(=C\c2ccc(F)cc2)Oc2c1ccc(O)c2O`, the IC50 was > 60000 nM.
On the same count and under the same terms, to `CCOC(=O)CCCOc1ccc(/C=C2/Oc3c(ccc(O)c3O)C2=O)c(O)c1` belongs 650 nM.
Still for that read-out and setting: then `O=C(O)COc1ccccc1/C=C1/Oc2c(ccc(O)c2O)C1=O`, with 1800 nM; and `Cc1ccccc1/C=C1/Oc2c(ccc(O)c2O)C1=O`, with 4000 nM; and `O=C1/C(=C\c2ccc(OCCCCO)cc2O)Oc2c1ccc(O)c2O`, with 860 nM.
On the same count and under the same terms, to `O=C1/C(=C\c2ccc(-n3ccnc3)cc2)Oc2c1ccc(O)c2O` belongs 5100 nM; to `O=C1/C(=C\c2ccc(O)cc2)Oc2c1ccc(O)c2O`, 15000 nM; to `CCOC(=O)COc1ccc(/C=C2/Oc3c(ccc(O)c3O)C2=O)c(O)c1`, 10300 nM.
Consider `CC(C)Oc1ccc(/C=C2/Oc3c(ccc(O)c3O)C2=O)c(O)c1`, for which half-maximal inhibition (IC50) required 1000 nM.
`O=C1/C(=C\c2ccc([N+](=O)[O-])cc2)Oc2c1ccc(O)c2O` displayed an IC50 of 4800 nM. Against the preceding molecule, the IC50 is about 4.8-fold higher.
On the same count and under the same terms, to `COc1cccc(/C=C2/Oc3c(ccc(O)c3O)C2=O)c1O` belongs 1700 nM; to `O=C1/C(=C\c2ccc(C(F)(F)F)cc2)Oc2c1ccc(O)c2O`, 7000 nM; to `O=C1/C(=C\c2ccccc2O)Oc2c1ccc(O)c2O`, 800 nM.
Still for that read-out and setting: to `CCCCCCOc1ccc(/C=C2/Oc3c(ccc(O)c3O)C2=O)c(O)c1` belongs 320 nM; to `O=C1/C(=C\c2ccc(OCCCO)cc2O)Oc2c1ccc(O)c2O`, 2500 nM.
`CCOc1ccc(/C=C2/Oc3c(ccc(O)c3O)C2=O)cc1`: the IC50 is 5800 nM.
As to `O=C(O)c1ccc(/C=C2/Oc3c(ccc(O)c3O)C2=O)cc1`, the IC50 was 24000 nM.
Regarding `O=C1/C(=C\c2ccc(N3CCOCC3)cc2)Oc2c1ccc(O)c2O`, the IC50 was > 50000 nM.
For `O=C1/C(=C\c2ccc(N3CCCC3)cc2)Oc2c1ccc(O)c2O`, half-maximal inhibition (IC50) was put at 5500 nM.
Molecule `O=C1/C(=C\c2ccccc2[N+](=O)[O-])Oc2c1ccc(O)c2O` came in with a concentration for half-maximal inhibition (IC50) of 2000 nM. This IC50 lies about 2.8-fold lower than the previous one.
On the same count and under the same terms, to `O=C1/C(=C\c2ccccc2Cl)Oc2c1ccc(O)c2O` belongs 5200 nM; to `O=C1/C(=C\c2ccccc2C(F)(F)F)Oc2c1ccc(O)c2O`, 17300 nM; to `N#CCCCOc1ccc(/C=C2/Oc3c(ccc(O)c3O)C2=O)c(O)c1`, 1100 nM.
Same read-out and setting: to `COc1ccc(/C=C2/Oc3c(ccc(O)c3O)C2=O)cc1` belongs 14300 nM; to `CN(C)c1ccc(/C=C2/Oc3c(ccc(O)c3O)C2=O)cc1`, 25900 nM; to `O=C1/C(=C\c2ccccc2)Oc2c1ccc(O)c2O`, 3500 nM.
Consider `CC(C)COc1ccc(/C=C2/Oc3c(ccc(O)c3O)C2=O)c(O)c1`, for which the IC50 came out at 580 nM.
Same read-out and setting: then `CCCOc1ccc(/C=C2/Oc3c(ccc(O)c3O)C2=O)c(O)c1`, with 510 nM; and `CCN(CC)c1ccc(/C=C2/Oc3c(ccc(O)c3O)C2=O)c(O)c1`, with 5000 nM; and `COc1ccc(/C=C2/Oc3c(ccc(O)c3O)C2=O)c(O)c1`, with 700 nM.
Still for that read-out and setting: to `O=C1/C(=C\c2ccc(OCCCCCCO)cc2O)Oc2c1ccc(O)c2O` belongs 1600 nM.
With `COc1ccccc1/C=C1/Oc2c(ccc(O)c2O)C1=O`, the IC50 was > 60000 nM.
`CCN(CCO)c1ccc(/C=C2/Oc3c(ccc(O)c3O)C2=O)c(C)c1` came in with an IC50 of 3400 nM.
